# Patent publication US8895585B2, “Nicotinamide derivative or salt thereof” (FUJIFILM Corporation, priority 2010, dated 2014)
# Molecular target: T1, glutathione S-transferase (GST)-fused full-length human Syk protein (Homo sapiens, UniProt P43405)
# T1 construct: (GST)-fused full-length human Syk protein; GST (glutathione S-transferase); purchased Carna Biosciences
# Assay: Syk enzyme assay
# Format: biochemical
# Settings: Syk enzyme assay, Test Example 1; read-out: IC50 of Syk-inhibitory activity
# How it was run: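 GST-tagged full-length human Syk (baculovirus) preincubated with compound 15 min at room temperature (pH 7.0, 10 mM MgCl2), then reacted 40 min with 0.4 μM biotinylated peptide substrate and 27 μM ATP (final). Phosphorylation read by HTRF (615/665 nm) after EDTA stop; IC50 reported.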
row,IC50 [µM],SMILES
1,< 0.01,"CC(C)C[C@@H](Nc1nc(Nc2ccc3c(c2)c(N2CCOCC2)nn3C)c(C(N)=O)cc1F)[C@H](C)N [Example 006-562, 6-(((2S,3R)-2-amino-5-methylhexan-3-yl)amino)-5-fluoro-2-((1-methyl-3-morpholino-1H-indazol-5-yl)amino)nicotinamide]"
2,0.1 to 1,"COCCOc1ncc(Nc2nc(N[C@@H]3CCCC[C@@H]3N)c(F)cc2C(N)=O)cc1N1CCOCC1 [Example 006-566, 6-(((1R,2S)-2-aminocyclohexyl)amino)-5-fluoro-2-((6-(2-methoxyethoxy)-5-morpholinopyridin-3-yl)amino)nicotinamide]"
3,0.01 to 0.05,"Cc1ncc(Nc2nc(N[C@@H]3CCCC[C@@H]3N)c(F)cc2C(N)=O)cc1Cl [Example 006-567, 6-(((1R,2S)-2-aminocyclohexyl)amino)-2-((5-chloro-6-methylpyridin-3-yl)amino)-5-fluoronicotinamide]"
4,0.05 to 0.1,"CCc1ncc(Nc2nc(N[C@@H]3CCCC[C@@H]3N)c(F)cc2C(N)=O)cc1Cl [Example 006-568, 6-(((1R,2S)-2-aminocyclohexyl)amino)-2-((5-chloro-6-ethylpyridin-3-yl)amino)-5-fluoronicotinamide]"
5,0.01 to 0.05,"NC(=O)c1cc(F)c(N[C@@H]2CCCC[C@@H]2N)nc1Nc1cnc(C2CC2)c(Cl)c1 [Example 006-569, 6-(((1R,2S)-2-aminocyclohexyl)amino)-2-((5-chloro-6-cyclopropylpyridin-3-yl)amino)-5-fluoronicotinamide]"
6,0.01 to 0.05,"CCOc1ncc(Nc2nc(N[C@@H]3CCCC[C@@H]3N)c(F)cc2C(N)=O)cc1Cl [Example 006-570, 6-(((1R,2S)-2-aminocyclohexyl)amino)-2-((5-chloro-6-ethoxypyridin-3-yl)amino)-5-fluoronicotinamide]"
7,0.05 to 0.1,"COCCOc1ncc(Nc2nc(N[C@@H]3CCCC[C@@H]3N)c(F)cc2C(N)=O)cc1Cl [Example 006-571, 6-(((1R,2S)-2-aminocyclohexyl)amino)-2-((5-chloro-6-(2-methoxyethoxy)pyridin-3-yl)amino)-5-fluoronicotinamide]"
8,0.01 to 0.05,"CCOc1ncc(Nc2nc(N[C@@H]3CCCC[C@@H]3N)c(F)cc2C(N)=O)cc1C1CC1 [Example 006-573, 6-(((1R,2S)-2-aminocyclohexyl)amino)-2-((5-cyclopropyl-6-ethoxypyridin-3-yl)amino)-5-fluoronicotinamide]"
9,0.01 to 0.05,"COCCOc1ncc(Nc2nc(N[C@@H]3CCCC[C@@H]3N)c(F)cc2C(N)=O)cc1C1CC1 [Example 006-574, 6-(((1R,2S)-2-aminocyclohexyl)amino)-2-((5-cyclopropyl-6-(2-methoxyethoxy)pyridin-3-yl)amino)-5-fluoronicotinamide]"
10,< 0.01,"Cc1nn(C)c2ccc(Nc3nc(N[C@H](C4CC4)[C@H](C)N)c(F)cc3C(N)=O)cc12 [Example 006-582, 6-(((1R,2S)-2-amino-1-cyclopropylpropyl)amino)-2-((1,3-dimethyl-1H-indazol-5-yl)amino)-5-fluoronicotinamide]"
11,< 0.01,"Cn1nc(-n2cccn2)c2cc(Nc3nc(N[C@@H]4CCCC[C@@H]4N)c(F)cc3C(N)=O)ccc21 [Example 006-594, 6-(((1R,2S)-2-aminocyclohexyl)amino)-5-fluoro-2-((1-methyl-3-(1H-pyrazol-1-yl)-1H-indazol-5-yl)amino)nicotinamide]"
12,< 0.01,"CC(C)C[C@@H](Nc1nc(Nc2ccc3c(c2)c(-n2cccn2)nn3C)c(C(N)=O)cc1F)[C@H](C)N [Example 006-595, 6-(((2S,3R)-2-amino-5-methylhexan-3-yl)amino)-5-fluoro-2-((1-methyl-3-(1H-pyrazol-1-yl)-1H-indazol-5-yl)amino)nicotinamide]"
13,0.01 to 0.05,Cc1cc(C)cc(Nc2nc(NCCN)c(F)cc2C(N)=O)c1 [Example 008-002]
14,0.1 to 1,Cc1ccccc1Nc1nc(NCCN)c(F)cc1C(N)=O [Example 008-003]
15,< 0.01,NC(=O)c1cc(F)c(NC2CCCCC2N)nc1Nc1cnc2ccccc2c1 (stereo not drawn) [Example 008-004]
16,< 0.01,NC(=O)c1cc(F)c(NC2CCCCC2N)nc1Nc1cccc(Cl)c1 (stereo not drawn) [Example 008-008]
17,0.1 to 1,NC(=O)c1cc(F)c(NCc2ccc[nH]2)nc1Nc1ccc2ncccc2c1 [Example 012-003]
18,0.01 to 0.05,NC(=O)c1cc(F)c(N[C@@H](C(N)=O)c2ccccc2)nc1Nc1ccc2ncsc2c1 [Example 012-004]

row,IC50 [µM],SMILES
1,0.01 to 0.05,NC(=O)c1cc(F)c(NC(Cc2ccccc2)C(N)=O)nc1Nc1ccc2ncsc2c1 (stereo not drawn) [Example 012-006]
2,0.01 to 0.05,NC(=O)c1cc(F)c(N[C@H](Cc2ccccc2)C(N)=O)nc1Nc1ccc2ncccc2c1 [Example 012-012]
3,0.1 to 1,NC(=O)c1cc(F)c(NCCc2cnc[nH]2)nc1Nc1ccc2ncccc2c1 [Example 012-014]
4,0.05 to 0.1,NC(=O)c1cc(F)c(NCc2cnc[nH]2)nc1Nc1ccc2ncccc2c1 [Example 012-015]
5,0.1 to 1,NC(=O)c1cc(F)c(NCc2ccccn2)nc1Nc1ccc2ncccc2c1 [Example 012-016]
6,0.1 to 1,NC(=O)c1cc(F)c(NCc2cccnc2)nc1Nc1ccc2ncccc2c1 [Example 012-017]
7,0.1 to 1,NC(=O)c1cc(F)c(NCc2ccncc2)nc1Nc1ccc2ncccc2c1 [Example 012-018]
8,0.05 to 0.1,NC(=O)CNc1nc(Nc2ccc3ncccc3c2)c(C(N)=O)cc1F [Example 012-019]
9,0.1 to 1,NC(=O)c1cc(F)c(NCc2cnc[nH]2)nc1Nc1cnc2ccccc2c1 [Example 012-020]
10,< 0.01,NC(=O)c1cc(F)c(NCCO)nc1Nc1ccc2ncccc2c1 [Example 012-021]
11,0.1 to 1,CNc1nc(Nc2ccc3ncccc3c2)c(C(N)=O)cc1F [Example 012-022]
12,0.1 to 1,NC(=O)c1cc(F)c(N[C@@H](CO)Cc2ccccc2)nc1Nc1ccc2ncccc2c1 [Example 012-023]
13,0.1 to 1,NC(=O)c1cc(F)c(N[C@@H](CO)c2ccccc2)nc1Nc1ccc2ncccc2c1 [Example 012-024]
14,0.01 to 0.05,NC(=O)c1cc(F)c(N[C@H](Cc2ccccc2)C(N)=O)nc1Nc1cnc2ccccc2c1 [Example 012-025]
15,0.1 to 1,CC(C)C[C@@H](Nc1nc(Nc2ccc3ncccc3c2)c(C(N)=O)cc1F)c1nnn[nH]1 [Example 012-026]
16,0.05 to 0.1,NC(=O)c1cc(F)c(NCc2cnn[nH]2)nc1Nc1ccc2ncccc2c1 [Example 012-027]
17,0.1 to 1,NC(=O)c1cc(F)c(NCc2ncc[nH]2)nc1Nc1ccc2ncccc2c1 [Example 012-028]

# Same assay, conditions: read-out: Syk-inhibitory activity (IC50)
row,IC50 [µM],SMILES
1,≤ 1,"Cc1cc(C)cc(Nc2nc(NCCN)c(F)cc2C(N)=O)c1 [Example 8-2, 6-((2-aminoethyl)amino)-2-((3,5-dimethylphenyl)amino)-5-fluoro-nicotinamide]"
2,≤ 1,NC(=O)c1cc(F)c(N[C@H](Cc2ccccc2)C(N)=O)nc1Nc1cnc2ccccc2c1 [Example 12-25]
3,≤ 1,"NC(=O)c1cc(F)c(NCc2cnn[nH]2)nc1Nc1ccc2ncccc2c1 [Example 12-27, 5-fluoro-2-(quinolin-6-ylamino)-6-(((1H-1,2,3-triazol-5-yl)methyl)amino)nicotinamide]"
4,≤ 1,"NC(=O)c1cc(F)c(NCc2ncc[nH]2)nc1Nc1ccc2ncccc2c1 [Example 12-28, 5-fluoro-6-(((1H-imidazol-2-yl)methyl)amino)-2-(quinolin-6-ylamino)nicotinamide]"
